The assay concerns BDF1 mice, B16 melanoma ip, median survival T/C. The experiment in a line: NCI In Vivo Anticancer Drug Screen. Data for tumor model B16 Melanoma (intraperitoneal) in B6D2F1 (BDF1) mice. As to conditions: endpoint: median survival time, higher = longer survival. An outline of the steps: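 Compounds were tested in mice carrying transplantable tumors. Survival or tumor size was recorded, and each value is the treated-group measurement (T) divided by that of the vehicle-treated control group (C).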

[1] abbreviates: dose: 12.5 mg/kg/injection, schedule: Q01DX009 (ip), vehicle: Klucel (hydroxypropylcellulose) (HPC).
Where [2] appears, read: dose: 25.0 mg/kg/injection, schedule: Q01DX009 (ip), vehicle: Klucel (hydroxypropylcellulose) (HPC).
Where [3] appears, read: dose: 50.0 mg/kg/injection, schedule: Q01DX009 (ip), vehicle: Klucel (hydroxypropylcellulose) (HPC).
Setting [4] is: dose: 100.0 mg/kg/injection, schedule: Q01DX009 (ip), vehicle: Klucel (hydroxypropylcellulose) (HPC).
[5] abbreviates: dose: 100.0 mg/kg/injection, schedule: Q04DX003 (ip), vehicle: Klucel (hydroxypropylcellulose) (HPC).
Where [6] appears, read: dose: 12.5 mg/kg/injection, schedule: Q01DX009 (ip), vehicle: saline.
Where [7] appears, read: dose: 25.0 mg/kg/injection, schedule: Q01DX009 (ip), vehicle: saline.
[8] abbreviates: dose: 50.0 mg/kg/injection, schedule: Q01DX009 (ip), vehicle: saline with Tween-80.
Where [9] appears, read: dose: 100.0 mg/kg/injection, schedule: Q01DX009 (ip), vehicle: saline with Tween-80.
[10] abbreviates: dose: 25.0 mg/kg/injection, schedule: Q01DX009 (ip), vehicle: saline with Tween-80.
The mark [11] stands for this setting: dose: 100.0 mg/kg/injection, schedule: Q04DX003 (ip), vehicle: saline with Tween-80.
Where [12] appears, read: dose: 200.0 mg/kg/injection, schedule: Q01DX009 (ip), vehicle: Klucel (hydroxypropylcellulose) (HPC).
Setting [13] is: dose: 50.0 mg/kg/injection, schedule: Q04DX003 (ip), vehicle: Klucel (hydroxypropylcellulose) (HPC).
Where [14] appears, read: dose: 10.0 mg/kg/injection, schedule: Q04DX003 (ip), vehicle: Klucel (hydroxypropylcellulose) (HPC).
Setting [15] is: dose: 20.0 mg/kg/injection, schedule: Q04DX003 (ip), vehicle: Klucel (hydroxypropylcellulose) (HPC).
Where [16] appears, read: dose: 40.0 mg/kg/injection, schedule: Q04DX003 (ip), vehicle: Klucel (hydroxypropylcellulose) (HPC).
[17] abbreviates: dose: 3.12 mg/kg/injection, schedule: Q01DX009 (ip), vehicle: Klucel (hydroxypropylcellulose) (HPC).
Where [18] appears, read: dose: 6.25 mg/kg/injection, schedule: Q01DX009 (ip), vehicle: Klucel (hydroxypropylcellulose) (HPC).

Structures are written as SMILES. Values joined by “and” are separate entries in the source; they are usually repeats but may differ in a detail not shown here. Equal values may be shown once. Inconclusive results and toxic doses are left out.

`Cn1c(O)c(/C=C2\C=Nc3ccccc32)n(C)c1=N`: the T/C runs as follows: under setting [1], 96 % of control; under setting [2], 100 % of control; under setting [3], 101 % of control; under setting [4], 97 % of control.

On to `Cc1ccc(S(=O)(=O)N2CCCC(=O)c3ccc(Cl)cc32)cc1`, for which the T/C is, setting by setting: under setting [5], 103 % of control; (dose: 200.0 mg/kg/injection, schedule: Q04DX003 (ip), vehicle: Klucel (hydroxypropylcellulose) (HPC)) 99 % of control; (dose: 400.0 mg/kg/injection, schedule: Q04DX003 (ip), vehicle: Klucel (hydroxypropylcellulose) (HPC)) 99 % of control.

For `C(=C\c1ccccc1)/C[P+](c1ccccc1)(c1ccccc1)c1ccccc1`, the T/C runs as follows: (dose: 0.06 mg/kg/injection, schedule: Q01DX009 (ip), vehicle: saline sonified) 100 % of control; (dose: 1.25 mg/kg/injection, schedule: Q01DX009 (ip), vehicle: saline sonified) 93 % of control; (dose: 2.5 mg/kg/injection, schedule: Q01DX009 (ip), vehicle: saline sonified) 97 % of control; (dose: 5.0 mg/kg/injection, schedule: Q01DX009 (ip), vehicle: saline sonified) 91 % of control.

As for `CN(C)CCCC1c2ccccc2Oc2ccc(C(F)(F)F)cc21` (stereo not given), the T/C is 86 % of control (dose: 3.12 mg/kg/injection, schedule: Q01DX009 (ip), vehicle: saline); 88 % of control (dose: 6.25 mg/kg/injection, schedule: Q01DX009 (ip), vehicle: saline); 100 % of control under setting [6]; 97 % of control under setting [7].

Turning to `CC(=O)/C=C(\C)OC1CCCCC1`, the T/C reads like this: under setting [8], 113 % of control; under setting [9], 104 % of control; (dose: 200.0 mg/kg/injection, schedule: Q01DX009 (ip), vehicle: saline with Tween-80) 92 % of control.

On to `CN1CCc2cc3c(cc2C(=O)Cc2ccc4c(c2C1)OCO4)OCO3`, for which the T/C is 115 % of control under setting [10]; 117 % of control (dose: 25.0 mg/kg/injection, schedule: Q04DX003 (ip), vehicle: saline with Tween-80); 112 % of control under setting [8]; 114 % of control (dose: 50.0 mg/kg/injection, schedule: Q04DX003 (ip), vehicle: saline with Tween-80); 105 % of control under setting [9]; 94 % of control under setting [11].

Regarding `NC(N)=NCCc1ccccc1`, the T/C is 119 % of control (dose: 5.0 mg/kg/injection, schedule: Q01DX009 (ip), vehicle: saline); 111 % of control (dose: 10.0 mg/kg/injection, schedule: Q01DX009 (ip), vehicle: saline); 114 % of control (dose: 20.0 mg/kg/injection, schedule: Q01DX009 (ip), vehicle: saline).

With `CCOc1cc(N)ccc1C`, the T/C by setting is: under setting [3], 93 % of control; under setting [4], 93 % of control; under setting [12], 95 % of control.

In the case of `NNC(=O)c1ccncc1`, the T/C under setting [6] was 111 % of control; the T/C (dose: 16.0 mg/kg/injection, schedule: Q01DX009 (ip), vehicle: saline) was 98 % of control; the T/C under setting [7] was 100 % of control; the T/C (dose: 32.0 mg/kg/injection, schedule: Q01DX009 (ip), vehicle: saline) is 98 % of control; the T/C (dose: 50.0 mg/kg/injection, schedule: Q01DX009 (ip), vehicle: saline) was 105 % of control; the T/C (dose: 64.0 mg/kg/injection, schedule: Q01DX009 (ip), vehicle: saline) is 100 % of control. For the same molecule, the T/C (dose: 100.0 mg/kg/injection, schedule: Q01DX009 (ip), vehicle: saline) was 111 % of control and the T/C (dose: 128.0 mg/kg/injection, schedule: Q01DX009 (ip), vehicle: saline) is 90 % of control.

With `O=c1[nH]c(=O)n2n1CC(Br)C(Br)C2` (stereo not given), the T/C was 97 % of control under setting [11]; 102 % of control (dose: 200.0 mg/kg/injection, schedule: Q04DX003 (ip), vehicle: saline with Tween-80); 110 % of control (dose: 400.0 mg/kg/injection, schedule: Q04DX003 (ip), vehicle: saline with Tween-80).

As to `CC(=O)Nc1cccc2c1CCCC2`, the T/C was 113 % of control (dose: 100.0 mg/kg/injection, schedule: Q04DX003 (ip), vehicle: gum acacia); 97 % of control (dose: 200.0 mg/kg/injection, schedule: Q04DX003 (ip), vehicle: gum acacia); 95 % of control (dose: 400.0 mg/kg/injection, schedule: Q04DX003 (ip), vehicle: gum acacia).

As to `Cc1cc(Cl)ccc1NC(=O)Nc1ccc(Cl)c(Cl)c1`, the T/C is, setting by setting: under setting [13], 90 % of control; under setting [5], 95 % of control.

As to `O=C(CCN1CC1)Nc1ccc(NC(=O)CCN2CC2)cc1`, the T/C was 170 % of control (dose: 5.0 mg/kg/injection, schedule: Q04DX003 (ip), vehicle: Klucel (hydroxypropylcellulose) (HPC)); 173 % of control and 184 % of control under setting [14]; 160 % of control and 175 % of control under setting [15]; 105 % of control under setting [16].

On to `O=c1[nH]c(Cl)ncc1F`, for which the T/C (dose: 37.5 mg/kg/injection, schedule: Q01DX009 (ip), vehicle: Klucel (hydroxypropylcellulose) (HPC)) is 87 % of control.

Consider `C/C(=N/NC(N)=S)c1ccc2ccccc2c1`, for which the T/C was 111 % of control (dose: 6.0 mg/kg/injection, schedule: Q01DX009 (ip), vehicle: saline with Tween-80) and 105 % of control (dose: 12.0 mg/kg/injection, schedule: Q01DX009 (ip), vehicle: saline with Tween-80).

With `CC(=O)Nc1ccc(C#N)c2ccccc12`, the T/C reads like this: under setting [4], 124 % of control; under setting [12], 111 % of control; (dose: 400.0 mg/kg/injection, schedule: Q01DX009 (ip), vehicle: Klucel (hydroxypropylcellulose) (HPC)) 111 % of control.

Consider `ClCCOC1COC(OCCCl)CO1` (stereo not given), for which the T/C runs as follows: under setting [17], 103 % of control; under setting [18], 98 % of control; under setting [1], 93 % of control; under setting [2], 103 % of control; under setting [3], 96 % of control; under setting [4], 98 % of control. Further, the T/C under setting [12] was 100 % of control.

For `C/C=C/CNc1ccc(C)cc1`, the T/C was 102 % of control under setting [10], 102 % of control under setting [8] and 92 % of control under setting [9].

With `COc1ccc(OCC(O)CN2CCN(c3ccc(Cl)cc3)CC2)cc1` (stereo not given), the T/C by setting is: under setting [18], 97 % of control; under setting [1], 105 % of control; under setting [2], 104 % of control; under setting [3], 111 % of control; under setting [4], 108 % of control; under setting [12], 105 % of control.

For `COc1cc2c(cc1OC)C1CC(=O)C(CC(C)C)CN1CC2` (stereo not given), the T/C is, setting by setting: under setting [18], 100 % of control; under setting [2], 100 % of control; under setting [3], 95 % of control; under setting [4], 97 % of control.

As to `COC(CBr)c1ccccc1` (stereo not given), the T/C was 102 % of control under setting [17]; 104 % of control under setting [18]; 97 % of control under setting [14]; 92 % of control under setting [1]; 87 % of control under setting [15]; 87 % of control under setting [16].

As to `CC(C)=CCC(OC(=O)C=C(C)C)C1=CC(=O)c2c(O)ccc(O)c2C1=O` (stereo not given), the T/C is 99 % of control (dose: 0.25 mg/kg/injection, schedule: Q01DX009 (ip), vehicle: Klucel (hydroxypropylcellulose) (HPC)) and 92 % of control (dose: 0.5 mg/kg/injection, schedule: Q01DX009 (ip), vehicle: Klucel (hydroxypropylcellulose) (HPC)).

On to `CC1=CC(=O)C(O)C2(C)C1CC(O)C13COC4(C)C(OC(=O)C41)C(O)C23` (stereo not given), for which the T/C by setting is: (dose: 1.0 mg/kg/injection, schedule: Q01DX009 (ip), vehicle: saline with Tween-80) 97 % of control; (dose: 2.0 mg/kg/injection, schedule: Q01DX009 (ip), vehicle: saline with Tween-80) 101 % of control; (dose: 4.0 mg/kg/injection, schedule: Q01DX009 (ip), vehicle: saline with Tween-80) 97 % of control.

Turning to `c1ccc(C(C2=NCCN2)c2ccccc2)cc1`, the T/C was 105 % of control (dose: 25.0 mg/kg/injection, schedule: Q04DX003 (ip), vehicle: Klucel (hydroxypropylcellulose) (HPC)); 91 % of control under setting [13]; 95 % of control under setting [5].

Source of the values: PubChem BioAssay AID192 (DTP/NCI, 2004).
